Data published in paper PMC9229919, “4-Aminoquinoline-Based Adamantanes as Potential Anticholinesterase Agents in Symptomatic Treatment of Alzheimer’s Disease” (Pharmaceutics, 2022).
Read-outs that look alike come from different tables or passages of the source.

Experiments:
purified human BChE [1] = molecular target: T1, purified human BChE (Homo sapiens, UniProt P06276); assay: biochemical; format: biochemical
T1 construct: possibly also a gift of Dr Florian Nachon (the sentence is ambiguous)
T1 sequence (P06276 29-602): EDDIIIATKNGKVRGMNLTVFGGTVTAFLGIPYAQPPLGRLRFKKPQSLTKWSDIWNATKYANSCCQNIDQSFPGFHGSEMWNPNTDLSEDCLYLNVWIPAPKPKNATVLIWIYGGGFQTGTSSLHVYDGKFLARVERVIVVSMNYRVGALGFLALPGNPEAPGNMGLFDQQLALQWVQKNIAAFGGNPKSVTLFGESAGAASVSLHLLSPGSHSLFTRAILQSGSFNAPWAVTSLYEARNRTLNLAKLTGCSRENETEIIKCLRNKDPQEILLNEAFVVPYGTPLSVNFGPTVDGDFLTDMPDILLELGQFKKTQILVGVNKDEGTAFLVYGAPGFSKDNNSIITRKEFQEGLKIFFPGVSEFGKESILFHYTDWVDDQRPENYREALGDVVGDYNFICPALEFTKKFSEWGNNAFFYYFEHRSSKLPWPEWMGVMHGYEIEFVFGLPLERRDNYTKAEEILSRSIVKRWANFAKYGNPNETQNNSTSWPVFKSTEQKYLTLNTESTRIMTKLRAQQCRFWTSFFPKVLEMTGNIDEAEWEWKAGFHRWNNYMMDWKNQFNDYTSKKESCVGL
Outline: (§1)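 Modified Ellman assay with acetylthiocholine and DTNB in 0.1 M sodium phosphate pH 7.4 (enzymes diluted with 0.1% BSA), ≤0.2% DMSO, 25 °C. At least three inhibitor concentrations per substrate level; Ki,app from Hunter–Downs equation, Ki from y-intercept and inhibition type from Ki,app vs [S].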

recombinant human AChE = molecular target: T2, recombinant human AChE (Homo sapiens, UniProt P22303); assay: biochemical; format: biochemical; settings: for IS: IS = Ki(BChE)/Ki(AChE), IS > 1 selective to AChE
T2 construct: gift of Dr Florian Nachon (Armed Forces Biomedical Research Institute, Brétigny-sur-Orge, France)
T2 sequence (P22303 32-614): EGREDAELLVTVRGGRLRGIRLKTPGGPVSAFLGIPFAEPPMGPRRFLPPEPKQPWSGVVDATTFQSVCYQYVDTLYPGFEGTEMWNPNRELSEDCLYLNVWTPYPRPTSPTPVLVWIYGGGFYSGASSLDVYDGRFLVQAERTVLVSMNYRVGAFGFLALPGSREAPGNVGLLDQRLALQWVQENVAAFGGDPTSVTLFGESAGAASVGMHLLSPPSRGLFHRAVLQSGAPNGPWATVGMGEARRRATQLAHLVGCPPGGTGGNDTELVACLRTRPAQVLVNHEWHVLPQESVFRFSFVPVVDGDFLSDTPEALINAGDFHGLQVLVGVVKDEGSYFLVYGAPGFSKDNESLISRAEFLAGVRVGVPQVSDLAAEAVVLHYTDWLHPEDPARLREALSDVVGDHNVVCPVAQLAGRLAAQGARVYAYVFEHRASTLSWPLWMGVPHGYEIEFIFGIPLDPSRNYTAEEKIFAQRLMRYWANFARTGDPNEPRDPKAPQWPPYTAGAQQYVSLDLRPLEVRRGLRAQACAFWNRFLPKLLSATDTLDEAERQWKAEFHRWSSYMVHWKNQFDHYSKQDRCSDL
Outline: as §1

[2] = Ferric reducing antioxidant power (FRAP) assay; settings: for FRAP: mean ± standard error of three experiments;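 as to FRAP: expressed as µM Fe2+ equivalents from an FeSO4·7H2O standard curve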
Outline: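 Ferric-TPTZ reduction measured by absorbance at 593 nm after 60 min at 37 °C in pH 3.6 acetate-buffered TPTZ/FeCl3 reagent, with test compounds at 10 and 100 µM. FRAP values calculated from an Fe2SO4·7H2O standard curve. Data from three independent experiments.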

[3] = Reverse-phase thin-layer chromatographic lipophilicity (RF, RM0); format: physicochemical; settings: for RM0: intercept of RM = RM0 + bC; for b: slope of RM = RM0 + bC; for RF, Methanol/Water/Hydrochloric acid (conc.), mobile phase I / RF, Dioxane/Water/Hydrochloric acid (conc.), mobile phase II / RF, Methanol/Water/Hydrochloric acid (conc.), mobile phase II / RF, Acetone/Water/Hydrochloric acid (conc.), mobile phase III / RF, Dioxane/Water/Hydrochloric acid (conc.), mobile phase III / RF, Methanol/Water/Hydrochloric acid (conc.), mobile phase III / RF, Dioxane/Water/Hydrochloric acid (conc.), mobile phase IV / RF, Acetone/Water/Hydrochloric acid (conc.), mobile phase IV / RF, Methanol/Water/Hydrochloric acid (conc.), mobile phase IV / RF, Acetone/Water/Hydrochloric acid (conc.), mobile phase IX / RF, Methanol/Water/Hydrochloric acid (conc.), mobile phase IX / RF, Dioxane/Water/Hydrochloric acid (conc.), mobile phase V / RF, Acetone/Water/Hydrochloric acid (conc.), mobile phase V / RF, Methanol/Water/Hydrochloric acid (conc.), mobile phase V / RF, Dioxane/Water/Hydrochloric acid (conc.), mobile phase VI / RF, Acetone/Water/Hydrochloric acid (conc.), mobile phase VI / RF, Methanol/Water/Hydrochloric acid (conc.), mobile phase VI / RF, Acetone/Water/Hydrochloric acid (conc.), mobile phase VII / RF, Methanol/Water/Hydrochloric acid (conc.), mobile phase VII / RF, Acetone/Water/Hydrochloric acid (conc.), mobile phase VIII / RF, Methanol/Water/Hydrochloric acid (conc.), mobile phase VIII: RP-18 silica; for RF, Methanol/Water/Hydrochloric acid (conc.), mobile phase I: I = 90%MeOH/5%H2O/5%HCl; for RF, Dioxane/Water/Hydrochloric acid (conc.), mobile phase II: II = 80%Dioxane/15%H2O/5%HCl; for RF, Methanol/Water/Hydrochloric acid (conc.), mobile phase II: II = 85%MeOH/10%H2O/5%HCl; for RF, Acetone/Water/Hydrochloric acid (conc.), mobile phase III: III = 70%AC/25%H2O/5%HCl; for RF, Dioxane/Water/Hydrochloric acid (conc.), mobile phase III: III = 70%Dioxane/25%H2O/5%HCl; for RF, Methanol/Water/Hydrochloric acid (conc.), mobile phase III: III = 80%MeOH/15%H2O/5%HCl; for RF, Dioxane/Water/Hydrochloric acid (conc.), mobile phase IV: IV = 60%Dioxane/35%H2O/5%HCl; for RF, Acetone/Water/Hydrochloric acid (conc.), mobile phase IV: IV = 65%AC/30%H2O/5%HCl; for RF, Methanol/Water/Hydrochloric acid (conc.), mobile phase IV: IV = 75%MeOH/20%H2O/5%HCl; for RF, Acetone/Water/Hydrochloric acid (conc.), mobile phase IX: IX = 40%AC/55%H2O/5%HCl; for RF, Methanol/Water/Hydrochloric acid (conc.), mobile phase IX: IX = 50%MeOH/45%H2O/5%HCl; for RF, Dioxane/Water/Hydrochloric acid (conc.), mobile phase V: V = 50%Dioxane/45%H2O/5%HCl; for RF, Acetone/Water/Hydrochloric acid (conc.), mobile phase V: V = 60%AC/35%H2O/5%HCl; for RF, Methanol/Water/Hydrochloric acid (conc.), mobile phase V: V = 70%MeOH/25%H2O/5%HCl; for RF, Dioxane/Water/Hydrochloric acid (conc.), mobile phase VI: VI = 40%Dioxane/55%H2O/5%HCl; for RF, Acetone/Water/Hydrochloric acid (conc.), mobile phase VI: VI = 55%AC/40%H2O/5%HCl; for RF, Methanol/Water/Hydrochloric acid (conc.), mobile phase VI: VI = 65%MeOH/30%H2O/5%HCl; for RF, Acetone/Water/Hydrochloric acid (conc.), mobile phase VII: VII = 50%AC/45%H2O/5%HCl; for RF, Methanol/Water/Hydrochloric acid (conc.), mobile phase VII: VII = 60%MeOH/35%H2O/5%HCl; for RF, Acetone/Water/Hydrochloric acid (conc.), mobile phase VIII: VIII = 45%AC/50%H2O/5%HCl; for RF, Methanol/Water/Hydrochloric acid (conc.), mobile phase VIII: VIII = 55%MeOH/40%H2O/5%HCl
Outline: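 Lipophilicity from RP-TLC retention at 22±2 °C over a 4.5 cm development distance. Eluents: organic modifier (methanol, acetone or dioxane), water and hydrochloric acid, methanol stepped by 10%. RM0 obtained from RF.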

purified human BChE [4] = molecular target: T1, purified human BChE; parameters: method as in PMID 31600664; settings: previously tested derivative 2 (CQAd); ref [38]; cited from earlier work
physchem = settings: octadecyl-modified silica RP-18W F254s TLC plates, pH 0.5
From the text: The mobile phase contained an organic modifier (methanol, acetone or dioxane), water, and hydrochloric acid. The content of hydrochloric acid was kept constant at 5% v/v, while the portions of organic modifier and water varied. […] Mobile phase MeOH/H2O/HCl, 70:25:5 (vol%) was used to determine the partition coefficients, logDexp, of the tested compounds at pH 0.5 (Supplementary Materials File S3 Table S7).
Chromatographic determination of lipophilicity
Lipophilicity of synthesized compounds was evaluated under reversed-phase thin-layer
chromatographic condition using the vertical developing chamber (CAMAG, Muttenz, Switzerland)
The mobile phase contained organic modifier (methanol, acetone or dioxane), water and hydrochloric acid. The content of hydrochloric acid was kept constant at 5 %v/v
while the portion of the organic modifier and water were changed. Methanol was varied in the range
with an increment of 10%. The chamber was saturated with a mobile phase being used 15 minutes
before chromatogram development. The solvent developing distance was 4.5 cm. Detection of
All experiments were performed at ambient temperature (22±2 °C). Retention parameters were calculated as previously described [7].
The logD values of the investigated substances were determined by the interpolation procedure. […]
LogD values of the investigated substances were determined from the equation of the calibration […]

[5] = logarithm of Ki in µM, BChE, dependent variable of the QSAR model, read-out: Y Measured 2 log(ki)Bche, log (Ki/µM BChE) (converted)
[6] = Acetone/Water/Hydrochloric acid (conc.)
[7] = Dioxane/Water/Hydrochloric acid (conc.)
[8] = Methanol/Water/Hydrochloric acid (conc.)

## Clc1ccc2c(NCCCNCC34CC5CC(CC(C5)C3)C4)ccnc2c1 [Compound 2]
Purified human BChE [1]
  less potent inhibitors of BChE than compounds 3 or 4: about 3.2 times
Purified human BChE [1]; [5]
  Ki: 3.2 µM
Recombinant human AChE
  IS: 4.2
Recombinant human AChE; log (Ki/µM AChE)
  Y Measured 1 log(ki)Ache: -1.14E-01
[2]; 10 µM compound
  FRAP: 19 ± 2 µM
[2]; 100 µM compound
  FRAP: 64 ± 5 µM
[3]; [6]
  RM0: 1.795
  b: 2.949
[3]; [7]
  RM0: 0.8129
  b: 1.796
[3]; [8]
  RM0: 2.34
  b: 3.123
[3]
  RF, Methanol/Water/Hydrochloric acid (conc.), mobile phase I: 0.73
  RF, Dioxane/Water/Hydrochloric acid (conc.), mobile phase II: 0.78
  RF, Methanol/Water/Hydrochloric acid (conc.), mobile phase II: 0.67
  RF, Acetone/Water/Hydrochloric acid (conc.), mobile phase III: 0.61
  RF, Dioxane/Water/Hydrochloric acid (conc.), mobile phase III: 0.73
  RF, Methanol/Water/Hydrochloric acid (conc.), mobile phase III: 0.52
  RF, Dioxane/Water/Hydrochloric acid (conc.), mobile phase IV: 0.73
  RF, Acetone/Water/Hydrochloric acid (conc.), mobile phase IV: 0.58
  RF, Methanol/Water/Hydrochloric acid (conc.), mobile phase IV: 0.53
  RF, Acetone/Water/Hydrochloric acid (conc.), mobile phase IX: 0.15
  RF, Methanol/Water/Hydrochloric acid (conc.), mobile phase IX: 0.11
  RF, Dioxane/Water/Hydrochloric acid (conc.), mobile phase V: 0.55
  RF, Acetone/Water/Hydrochloric acid (conc.), mobile phase V: 0.5
  RF, Methanol/Water/Hydrochloric acid (conc.), mobile phase V: 0.47
  RF, Dioxane/Water/Hydrochloric acid (conc.), mobile phase VI: 0.4
  RF, Acetone/Water/Hydrochloric acid (conc.), mobile phase VI: 0.41
  RF, Methanol/Water/Hydrochloric acid (conc.), mobile phase VI: 0.43
  RF, Acetone/Water/Hydrochloric acid (conc.), mobile phase VII: 0.35
  RF, Methanol/Water/Hydrochloric acid (conc.), mobile phase VII: 0.25
  RF, Acetone/Water/Hydrochloric acid (conc.), mobile phase VIII: 0.3
  RF, Methanol/Water/Hydrochloric acid (conc.), mobile phase VIII: 0.19
Purified human BChE [4]
  Ki: 3.2 ± 0.4 µM

## Clc1ccc2c(Nc3cccc4c(NCCC56CC7CC(CC(C7)C5)C6)cccc34)ccnc2c1 [Compound 19]
Purified human BChE [1]
  decrease in BChE inhibition vs compound 5: up to 275 times
Purified human BChE [1]; [5]
  Ki: 21.9 µM
Purified human BChE [1]; ± standard error, 25 °C, ATCh substrate, read-out: Ki BChE
  Ki: 22 ± 2 µM
Recombinant human AChE
  IS: 5.8
Recombinant human AChE; log (Ki/µM AChE), read-out: Y Measured 1 log(ki)Ache (converted)
  Ki: 3.8 µM
Recombinant human AChE; ± standard error, 25 °C, ATCh substrate, read-out: Ki AChE
  Ki: 3.8 ± 0.3 µM
[2]; 10 µM compound
  FRAP: 336 ± 12 µM
[2]; 100 µM compound
  FRAP: 2450 ± 210 µM
[2]; 10 and 100 µM
  reducing power (in words): very good reducing power comparable to that of BHT and Trolox
[3]; [6]
  RM0: 1.657
  b: 2.289
[3]; [7]
  RM0: 1.551
  b: 2.623
[3]; [8]
  RM0: 3.685
  b: 4.54
[3]
  RF, Methanol/Water/Hydrochloric acid (conc.), mobile phase I: 0.67
  RF, Dioxane/Water/Hydrochloric acid (conc.), mobile phase II: 0.7
  RF, Methanol/Water/Hydrochloric acid (conc.), mobile phase II: 0.61
  RF, Acetone/Water/Hydrochloric acid (conc.), mobile phase III: 0.49
  RF, Dioxane/Water/Hydrochloric acid (conc.), mobile phase III: 0.66
  RF, Methanol/Water/Hydrochloric acid (conc.), mobile phase III: 0.44
  RF, Dioxane/Water/Hydrochloric acid (conc.), mobile phase IV: 0.63
  RF, Acetone/Water/Hydrochloric acid (conc.), mobile phase IV: 0.41
  RF, Methanol/Water/Hydrochloric acid (conc.), mobile phase IV: 0.35
  RF, Acetone/Water/Hydrochloric acid (conc.), mobile phase IX: 0.15
  RF, Methanol/Water/Hydrochloric acid (conc.), mobile phase IX: 0
  RF, Dioxane/Water/Hydrochloric acid (conc.), mobile phase V: 0.53
  RF, Acetone/Water/Hydrochloric acid (conc.), mobile phase V: 0.3
  RF, Methanol/Water/Hydrochloric acid (conc.), mobile phase V: 0.3
  RF, Dioxane/Water/Hydrochloric acid (conc.), mobile phase VI: 0.13
  RF, Acetone/Water/Hydrochloric acid (conc.), mobile phase VI: 0.28
  RF, Methanol/Water/Hydrochloric acid (conc.), mobile phase VI: 0.21
  RF, Acetone/Water/Hydrochloric acid (conc.), mobile phase VII: 0.25
  RF, Methanol/Water/Hydrochloric acid (conc.), mobile phase VII: 0.1
  RF, Acetone/Water/Hydrochloric acid (conc.), mobile phase VIII: 0.2
  RF, Methanol/Water/Hydrochloric acid (conc.), mobile phase VIII: 0.04
physchem
  chromatographic logD: -4.12
